Assay results from patent US20250186463A1, “ABIRATERONE DECANOATE PRODRUGS AND USE IN THERAPY” (PROPELLA THERAPEUTICS, INC., priority 2022, published 2025).
Marks after values point to notes of the source that are not given here.

Experiments:
[1] = system: lymph node lesions; test: Follow-up analysis and post-study PET/CT scan (Patient 1); type: in vivo, human; settings: Patient 1, 180 mg, CSPC; enzalutamide started after study
Protocol: Patient 1. This patient is in cohort 1, which was administered 180 mg of abiraterone decanoate. This patient is […], with CSPC, with a Gleason score ≤6, who entered the study with left common iliac and femoral lymph node involvement and measurable PSA. The patient received degarelix (March thru May 2021) and leuprolide (starting June 2021). Abiraterone decanoate was injected to the patient on Jul. […] On Sep. 24, 2021, this patient started enzalutamide (Xtandi) treatment.

[2] = Abiraterone plasma exposure in monkeys, vehicle comparison; type: in vivo; settings: corn oil 70%, benzyl benzoate 20%, same concentration and dose
Source text: In some embodiments, the abiraterone prodrug formulation can comprise a combination of benzyl alcohol and benzyl benzoate as cosolvents. In some embodiments, the benzyl alcohol can be present in an amount of about 0-20% (e.g., 0-15% or 0-10%, such as about 10%) of the solvent, and benzyl benzoate can be present in an amount of about 0-50% (e.g., 0-35% or 0-30%, such as about 20%) of the solvent, wherein the balance of the solvent can be any one or more of the pharmaceutically acceptable oil described herein, such as corn oil, castor oil, sesame oil, peanut oil, cottonseed oil, and/or Miglyol 812, etc.

[3] = system: serum progesterone; test: Phase 1/2a study: serum progesterone; type: in vivo, human
Protocol: This is a Phase 1/2a, Open-label, Multicenter Study of Intramuscular Abiraterone Decanoate Depot in Patients with Advanced Prostate Cancer.
Formulations and dosing regimen: The formulation used in the study (abiraterone decanoate for intramuscular [i.m.] injection) is a solution formulation of abiraterone decanoate at a concentration of 180 mg/mL and will be provided as a 10 mL vial containing 990 mg of abiraterone decanoate in 5.5 mL of solution. See further details of the formulations in Example 2 (for each milliliter: Abiraterone Decanoate, about 180 mg/mL; Benzyl Alcohol, about 100 mg/mL; Benzyl Benzoate, about 200 mg/mL; and Corn oil, q.s. to 1 mL). Abiraterone Decanoate will be administered as an i.m. injection every 84 days (±3 days). Dose escalation will proceed with a modified Fibonacci sequence. Based on emerging data, intermediate doses may be evaluated.
Study Design: This is a Phase 1/2a, Open-label, Multicenter Study of Intramuscular Abiraterone Decanoate Depot in Patients with Advanced Prostate Cancer. In Phase 1, all patients will receive i.m. Abiraterone Decanoate depot in 84-day treatment cycles combined with daily oral prednisone or dexamethasone. In Phase 2a, patients will be randomized 1:1 and treated with i.m. Abiraterone Decanoate depot in 84-day treatment cycles in combination with dexamethasone (Arm A) or abiraterone acetate daily+prednisone (Arm B). In both Phases, patients will undergo scheduled periodic assessments of serum testosterone levels. Participants may continue treatment until they meet any discontinuation criteria outlined in the protocol.
Pharmacodynamic Analysis: Determination of Prostate Specific Antigen (PSA), serum testosterone, dehydroepiandrosterone (DHEA), dehydroepiandrosterone sulfate (DHEA-S), androstenedione, dihydrotestosterone (DHT), progesterone, cortisol, adrenocorticotropic hormone (ACTH), corticosterone, 11-dexoycorticosterone (11-DOC) and 11-deoxycortisol.
Based on the available data, the recommended dose for Phase 2 is about 1260 mg abiraterone decanoate once every three months (12 weeks). All cohorts 1 and 2 in this clinical study were treated with prednisone, 5 mg orally once or twice daily; and all cohorts 3-5 were treated with dexamethasone, 0.5 mg orally once daily. The results shown herein for these cohorts should be understood accordingly.
See also Table 3B below. […] See also FIG. 11B for the absolute serum progesterone levels for cohorts 4 and 5, with the LLOQ being 1.59 nM. It should be noted that the maximum serum progesterone level observed for cohorts 1-3 is 2.5 nM. FIGS. 3F and 3G show the serum 11-deoxycorticosterone and corticosterone response in cohorts 3, 4, and 5, the trend is similar to that observed for progesterone levels above. See a summary shown in the Table 3C below for the first cycle.

- abiraterone plasma exposure versus corn oil 90% / benzyl alcohol 10% formulation [2]: much higher abiraterone plasma exposure
Structure (SMILES): CCCCCCCCCC(=O)O[C@H]1CC[C@@]2(C)C(=CC[C@@H]3[C@@H]2CC[C@]2(C)C(c4cccnc4)=CC[C@@H]32)C1 [abiraterone decanoate]
- lymph node lesions on post-study PET/CT scan [1]: complete resolution of prior lymph node lesions
- Progesterone Changes during cycle 1, Percent (%) ([3]; 720 mg (N = 4), Day 14): −1%
- Progesterone Changes during cycle 1, Percent (%) ([3]; 720 mg (N = 4), Day 28): −2%
- Progesterone Changes during cycle 1, Percent (%) ([3]; 720 mg (N = 4), Day 56): 0%
- Progesterone Changes during cycle 1, Percent (%) ([3]; 720 mg (N = 4), Day 84): 0%
- Progesterone Changes during cycle 1, Percent (%) ([3]; 1,260 mg (N = 6), Day 14): 20%
- Progesterone Changes during cycle 1, Percent (%) ([3]; 1,260 mg (N = 6), Day 28): 35%
- Progesterone Changes during cycle 1, Percent (%) ([3]; 1,260 mg (N = 6), Day 56): 0%
- Progesterone Changes during cycle 1, Percent (%) ([3]; 1,260 mg (N = 6), Day 84): 0%
- Progesterone Changes during cycle 1, Percent (%) ([3]; 1,800 mg (N = 8), Day 14): 165%
- Progesterone Changes during cycle 1, Percent (%) ([3]; 1,800 mg (N = 8), Day 28): 86%
- Progesterone Changes during cycle 1, Percent (%) ([3]; 1,800 mg (N = 8), Day 56): 12%
- Progesterone Changes during cycle 1, Percent (%) ([3]; 1,800 mg (N = 8), Day 84): 13%
- Serum Progesterone (% CFB) ([3]; Cohort 1, 180 mg i.m., Study Day 1 (baseline)): 0%
- Serum Progesterone (% CFB) ([3]; Cohort 1, 180 mg i.m., Study Day 14): 0%
- Serum Progesterone (% CFB) ([3]; Cohort 1, 180 mg i.m., Study Day 28): 8%
- Serum Progesterone (% CFB) ([3]; Cohort 1, 180 mg i.m., Study Day 56): 0%
- Serum Progesterone (% CFB) ([3]; Cohort 1, 180 mg i.m., Study Day 70): 0%
- Serum Progesterone (% CFB) ([3]; Cohort 2, 360 mg i.m., Study Day 1 (baseline)): 0%
- Serum Progesterone (% CFB) ([3]; Cohort 2, 360 mg i.m., Study Day 14): 37%
- Serum Progesterone (% CFB) ([3]; Cohort 2, 360 mg i.m., Study Day 28): 8%
- Serum Progesterone (% CFB) ([3]; Cohort 2, 360 mg i.m., Study Day 56): 0%
- Serum Progesterone (% CFB) ([3]; Cohort 2, 360 mg i.m., Study Day 84): 0%
- Serum Progesterone (% CFB) ([3]; Cohort 2, 360 mg i.m., Study Day 168): 0%
- Serum Progesterone (% CFB) ([3]; Cohort 2, 360 mg i.m., Study Day 252): 0%
- Serum Progesterone (% CFB) ([3]; Cohort 3, 720 mg i.m., Study Day 1 (baseline)): 0%
- Serum Progesterone (% CFB) ([3]; Cohort 3, 720 mg i.m., Study Day 14): −1%
- Serum Progesterone (% CFB) ([3]; Cohort 3, 720 mg i.m., Study Day 28): −2%
- Serum Progesterone (% CFB) ([3]; Cohort 3, 720 mg i.m., Study Day 56): 0%
- Serum Progesterone (% CFB) ([3]; Cohort 3, 720 mg i.m., Study Day 84): 0%
- Serum Progesterone (% CFB) ([3]; Cohort 3, 720 mg i.m., Study Day 168): 6%
- Serum Progesterone (% CFB) ([3]; Cohort 3, 720 mg i.m., Study Day 224): 0%
- Serum Progesterone (% CFB) ([3]; Cohort 3, 720 mg i.m., Study Day 252): 0%
- Serum Progesterone (% CFB) ([3]; Cohort 4, 1260 mg i.m., Study Day 1 (baseline)): 0%
- Serum Progesterone (% CFB) ([3]; Cohort 4, 1260 mg i.m., Study Day 14): 20%
- Serum Progesterone (% CFB) ([3]; Cohort 4, 1260 mg i.m., Study Day 28): 35%
- Serum Progesterone (% CFB) ([3]; Cohort 4, 1260 mg i.m., Study Day 42): 0%
- Serum Progesterone (% CFB) ([3]; Cohort 4, 1260 mg i.m., Study Day 56): 0%
- Serum Progesterone (% CFB) ([3]; Cohort 4, 1260 mg i.m., Study Day 70): 22%
- Serum Progesterone (% CFB) ([3]; Cohort 4, 1260 mg i.m., Study Day 84): 0%
- Serum Progesterone (% CFB) ([3]; Cohort 4, 1260 mg i.m., Study Day 112): 6%
- Serum Progesterone (% CFB) ([3]; Cohort 4, 1260 mg i.m., Study Day 140): 0%
- Serum Progesterone (% CFB) ([3]; Cohort 4, 1260 mg i.m., Study Day 168): 1%
- Serum Progesterone (% CFB) ([3]; Cohort 4, 1260 mg i.m., Study Day 224): 0%
- Serum Progesterone (% CFB) ([3]; Cohort 4, 1260 mg i.m., Study Day 252): 0%
- Serum Progesterone (% CFB) ([3]; Cohort 5, 1800 mg i.m., Study Day 1 (baseline)): 0%
- Serum Progesterone (% CFB) ([3]; Cohort 5, 1800 mg i.m., Study Day 14): 165%
- Serum Progesterone (% CFB) ([3]; Cohort 5, 1800 mg i.m., Study Day 28): 86%
- Serum Progesterone (% CFB) ([3]; Cohort 5, 1800 mg i.m., Study Day 42): 0%
- Serum Progesterone (% CFB) ([3]; Cohort 5, 1800 mg i.m., Study Day 56): 12%
- Serum Progesterone (% CFB) ([3]; Cohort 5, 1800 mg i.m., Study Day 70): 0%
- Serum Progesterone (% CFB) ([3]; Cohort 5, 1800 mg i.m., Study Day 84): 8%
- Serum Progesterone (% CFB) ([3]; Cohort 5, 1800 mg i.m., Study Day 140): 0%
- Serum Progesterone (% CFB) ([3]; Cohort 5, 1800 mg i.m., Study Day 168): −7%
- Serum Progesterone (% CFB) ([3]; Cohort 5, 1800 mg i.m., Study Day 196): 52%
- Serum Progesterone (% CFB) ([3]; Cohort 5, 1800 mg i.m., Study Day 224): −7%
- Serum Progesterone (% CFB) ([3]; Cohort 5, 1800 mg i.m., Study Day 252): 0%
- progesterone change from baseline ([3]; Patient 1, cohort 1, 180 mg, FIG. 5): no progesterone increase from baseline
- transient up stream steroid (progesterone) increase from baseline ([3]; Patient 2, cohort 2, 360 mg, FIG. 6): returned to baseline
- increases of progesterone levels during the second cycle ([3]; all cohorts): no significant increases
- progesterone changes from baseline ([3]; all cohorts (180-1800 mg)): not significant
- time at which progesterone level returned to baseline ([3]; cohort 5 (1800 mg), after first administration): ~6 week
- maximum serum progesterone level observed ([3]; cohorts 1-3 (180, 360, 720 mg)): 2.5 nM
- Progesterone at Visit Day (nM) ([3]; patient 02-1403, Cohort 4, 1260 mg, mCRPC, Visit C4D28, assay LLOQ = 1.59 nM): <LLOQ
- Progesterone at Visit Day (nM) ([3]; patient 02-1405, Cohort 4, 1260 mg, mCRPC, Visit C1D56, assay LLOQ = 1.59 nM): <LLOQ
- Progesterone at Visit Day (nM) ([3]; patient 02-1504, Cohort 5, 1800 mg, mCRPC, Visit C1D28, assay LLOQ = 1.59 nM): <LLOQ
- Progesterone at Visit Day (nM) ([3]; patient 04-1406, Cohort 4, 1260 mg, mCSPC, Visit C1D56, average of Day 28 and Day 70 values): 2.90† nM
- Progesterone at Visit Day ([3]; patient 04-1503, Cohort 5, 1800 mg, mCSPC, Visit C1D84, assay LLOQ = 1.59 nM): 2.54 nM
- Progesterone at Visit Day (nM) ([3]; patient 04-1506, Cohort 5, 1800 mg, mCRPC, Visit C1D28, assay LLOQ = 1.59 nM): <LLOQ
- Progesterone at Visit Day (nM) ([3]; patient 06-1401, Cohort 4, 1260 mg, mCRPC, Visit C3D84, assay LLOQ = 1.59 nM): <LLOQ
- Progesterone at Visit Day (nM) ([3]; patient 06-1402, Cohort 4, 1260 mg, mCRPC, Visit C4D28, assay LLOQ = 1.59 nM): <LLOQ
- Progesterone at Visit Day (nM) ([3]; patient 06-1404, Cohort 4, 1260 mg, mCSPC, Visit C2D84, assay LLOQ = 1.59 nM): <LLOQ
- Progesterone at Visit Day (nM) ([3]; patient 06-1501, Cohort 5, 1800 mg, mCRPC, Visit C1D84, assay LLOQ = 1.59 nM): <LLOQ
- Progesterone at Visit Day (nM) ([3]; patient 06-1502, Cohort 5, 1800 mg, mCSPC, Visit C2D84, assay LLOQ = 1.59 nM): <LLOQ
